From patent publication US20120329842A1 (priority 2010, published 2012)
Read-outs that look alike come from different tables or passages of the source.

Key:
[1] = molecular target: human matrix metalloproteinase 8 (MMP-8) (Homo sapiens, UniProt P22894); experiment: Human MMP-8 inhibition, commercial assay kit (Enzo); conditions: at concentrations up to 100 μM
Bla2 = Bla2 (Bacillus anthracis, UniProt Q93T40); experiment: biochemical; type: biochemical
[2] = system: O=C(Cc1cccs1)N[C@@H]1C(=O)N2C(C(=O)O)=C(/C=C/c3ccc([N+](=O)[O-])cc3[N+](=O)[O-])CS[C@H]12; experiment: purified protein, by the assay type; conditions: pH 7.5
IMP-1 [3] = molecular target: T1, IMP-1 (Serratia marcescens, UniProt P52699); conditions: data from ref. 2; cited from earlier work
T1 sequence (P52699 19-246 limits assumed): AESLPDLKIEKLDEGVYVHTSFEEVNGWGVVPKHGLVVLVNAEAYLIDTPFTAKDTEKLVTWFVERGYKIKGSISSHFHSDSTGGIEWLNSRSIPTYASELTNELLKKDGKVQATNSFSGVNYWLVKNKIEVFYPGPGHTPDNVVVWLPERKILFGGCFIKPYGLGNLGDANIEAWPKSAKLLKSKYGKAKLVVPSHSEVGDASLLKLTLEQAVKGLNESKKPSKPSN

VIM-1 = VIM-1 (Pseudomonas aeruginosa, UniProt A0A0F7KYQ8)
GIM-1 = GIM-1 (Pseudomonas aeruginosa, UniProt Q704V1); conditions: data from ref. 2; cited from earlier work
GIM-1, sequence (Q704V1 entry or part of it): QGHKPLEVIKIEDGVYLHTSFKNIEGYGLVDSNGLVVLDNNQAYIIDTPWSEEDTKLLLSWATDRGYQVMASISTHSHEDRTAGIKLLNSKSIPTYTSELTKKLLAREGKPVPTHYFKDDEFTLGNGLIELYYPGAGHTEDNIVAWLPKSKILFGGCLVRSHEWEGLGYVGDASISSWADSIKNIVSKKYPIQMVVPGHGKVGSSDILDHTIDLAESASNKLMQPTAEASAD

SPM-1 = conditions: data from ref. 2; cited from earlier work
IMP-1 [4] = molecular target: T1, IMP-1; experiment: biochemical; design: species or system Pseudomonas aeruginosa
[5] = molecular target: subclass B2 metallo-β-lactamase CphA (Aeromonas hydrophila, UniProt P26918); conditions: cited from earlier work
subclass B2 metallo-β-lactamase CphA, sequence (P26918 28-254): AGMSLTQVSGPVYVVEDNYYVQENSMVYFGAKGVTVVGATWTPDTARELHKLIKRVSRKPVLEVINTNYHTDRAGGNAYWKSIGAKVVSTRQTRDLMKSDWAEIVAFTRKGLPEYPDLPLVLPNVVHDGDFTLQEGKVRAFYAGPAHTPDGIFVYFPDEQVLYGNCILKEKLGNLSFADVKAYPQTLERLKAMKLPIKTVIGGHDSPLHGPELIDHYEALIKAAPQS

IMP-1 [6] = molecular target: T1, IMP-1; conditions: cited from earlier work
IMP-1 [7] = molecular target: T1, IMP-1; conditions: ratio of Km values
other MBLs = conditions: cited from earlier work
[8] = read-out: Km for VIM-1; data from ref. 2; cited from earlier work
[9] = data from ref. 2; read-out: Km for VIM-1; cited from earlier work

Bla2, sequence (Q93T40 1-256): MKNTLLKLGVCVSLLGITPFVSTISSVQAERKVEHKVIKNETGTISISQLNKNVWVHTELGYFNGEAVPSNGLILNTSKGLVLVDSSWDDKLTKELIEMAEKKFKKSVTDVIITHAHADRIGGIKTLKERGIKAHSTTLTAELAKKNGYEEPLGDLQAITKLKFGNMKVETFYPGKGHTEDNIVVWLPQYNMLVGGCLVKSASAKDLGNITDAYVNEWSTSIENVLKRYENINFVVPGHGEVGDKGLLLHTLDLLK
human matrix metalloproteinase 8 (MMP-8), sequence (P22894 101-467): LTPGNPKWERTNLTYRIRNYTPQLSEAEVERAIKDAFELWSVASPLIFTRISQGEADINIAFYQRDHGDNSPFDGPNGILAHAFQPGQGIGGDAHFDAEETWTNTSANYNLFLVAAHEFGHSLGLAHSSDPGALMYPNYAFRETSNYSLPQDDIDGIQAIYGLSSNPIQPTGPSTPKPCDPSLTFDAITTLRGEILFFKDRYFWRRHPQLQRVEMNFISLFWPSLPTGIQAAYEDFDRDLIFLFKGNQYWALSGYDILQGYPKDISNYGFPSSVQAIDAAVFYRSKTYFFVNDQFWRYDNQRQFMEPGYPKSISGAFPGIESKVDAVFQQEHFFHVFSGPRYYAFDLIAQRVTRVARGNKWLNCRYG

**Q.** With `O=C(O)c1csc(Cc2ccccc2)n1` [Compound 2, 2-benzylthiazole-4-carboxylic acid] as the molecule, how does the “inhibition of human MMP-8” value [1] read?
**A.** Its value is “did not exhibit inhibition”.

**Q.** Which IC50 (Bla2; read-out: Bla2 IC50) does the source give for `COC(=O)[C@@H]1CSC(CNC(=O)OC(C)(C)C)=N1` [Compound 369, tert-butyl ((R)-4-(methoxycarbonyl)-4,5-dihydrothiazol-2-yl)methylcarbamate] here?
**A.** Its IC50 is 110 µM.

**Q.** With IMP-1 (Serratia marcescens) as the molecule, how does the Km [2] read?
**A.** Its Km is 25 µM.

**Q.** For `CC(=O)OCC1=C(C(=O)O)N2C(=O)[C@@H](NC(=O)Cc3cccs3)[C@H]2SC1` [Cephalothin], which Km (IMP-1 [3]) is on record?
**A.** Its Km is 21 µM.

**Q.** And the Km (VIM-1; [8])?
**A.** The Km was 53 µM.

**Q.** And the Km (GIM-1)?
**A.** Its Km is 16 µM.

**Q.** And the Km (SPM-1)?
**A.** Its Km is 4 µM.

**Q.** With `CC(=O)Nc1cccc(C2=N[C@@H](C(=O)O)C(C)(C)S2)c1` [Compound 368, (S)-2-(3-acetamidophenyl)-4,5-dihydro-5,5-dimethyolthiazole-4-carboxylic acid] as the molecule, how does the IC50 (IMP-1 [4]; read-out: IMP-1 IC50) read?
**A.** Its IC50 is 60 µM.

**Q.** Which IC50 (Bla2) does the source give for `C[C@H](CS)C(=O)N1CCC[C@H]1C(=O)O` [Captopril, captopril] here?
**A.** Its IC50 is 25 µM.

**Q.** Which Km (VIM-1; [8]) does the source give for `C[C@@H](O)[C@H]1C(=O)N2C(C(=O)O)=C(SCCN=CN)C[C@H]12` [Imipenem, imipenem] here?
**A.** The Km was 1.5 µM.

**Q.** What about the Km (GIM-1) of the same molecule?
**A.** Its Km is 27 µM.

**Q.** What does the source list for `O=C(O)c1cccc(C(=O)O)n1` [pyridine-2,6-dicarboxylic acid]?
**A.** inhibition of CphA activity [5]: potently inhibit; inhibitory effect on IMP-1 (IMP-1 [6]): potently inhibit

**Q.** With penicillin G as the molecule, how does the “fold less tight binding to IMP-1 than imipenem” value (IMP-1 [7]) read?
**A.** Its value is roughly 13 ×.

**Q.** And the “fold less tight binding to IMP-1 than nitrocefin” value (IMP-1 [7])?
**A.** The value was roughly 20 ×.

**Q.** What about the Km (IMP-1 [3]) of the same molecule?
**A.** The Km was 520 µM.

**Q.** And the Km (VIM-1; [9])?
**A.** The Km was 841 µM.

**Q.** What about the Km (GIM-1) of the same molecule?
**A.** The Km was 46 µM.

**Q.** What about the Km (SPM-1) of the same molecule?
**A.** The Km was 38 µM.

**Q.** Which Km (IMP-1 [3]) does the source give for `CC1(C)S[C@@H]2[C@H](NC(=O)[C@H](N)c3ccccc3)C(=O)N2[C@H]1C(=O)O` [Ampicillin] here?
**A.** The Km was 200 µM.

**Q.** And the Km (VIM-1; [9])?
**A.** The Km was 917 µM.

**Q.** And the Km (GIM-1)?
**A.** The Km was 20 µM.

**Q.** And the Km (SPM-1)?
**A.** The Km was 72 µM.

**Q.** With `O=c1ccc(-c2ccccc2)cn1O` [Compound 4, 1-hydroxy-5-phenylpyridin-2-one] as the molecule, how does the IC50 (IMP-1 [4]) read?
**A.** The IC50 was 12 µM.

**Q.** And the Ki (IMP-1 [4])?
**A.** Its Ki is 3 to 19 µM.

**Q.** For `Nc1cccc(C2=NC(C(=O)O)CS2)c1` (stereo not drawn) [Compound 362, 2-(3-aminophenyl)-4,5-dihydrothiazole-4-carboxylic acid], which IC50 (IMP-1 [4]; read-out: IMP-1 IC50) is on record?
**A.** The IC50 was 100 µM.

**Q.** What about the IC50 (Bla2; read-out: Bla2 IC50) of the same molecule?
**A.** The IC50 was 20 µM.

**Q.** What about the Ki (Bla2; read-out: Bla2 KI) of the same molecule?
**A.** Its Ki is 15 µM.

**Q.** Which IC50 (IMP-1 [4]) does the source give for `O=C(NCc1ccccc1)c1cccc(O)n1` [Compound 3, N-benzyl-6-hydroxypyridine-2-carboxamide] here?
**A.** Its IC50 is 13.9 µM.

**Q.** And the Ki (IMP-1 [4])?
**A.** The Ki was 3 to 19 µM.

**Q.** For `O=C(O)C1CS[C@H](c2ccccc2O)N1` (stereo partly drawn) [Compound 160, (R)-2-(2-hydroxyphenyl)thiazolidine-4-carboxylic acid], which IC50 (IMP-1 [4]; read-out: IMP-1 IC50) is on record?
**A.** Its IC50 is 29.2 µM.

**Q.** And the IC50 (Bla2; read-out: Bla2 IC50)?
**A.** The IC50 was 16 µM.

**Q.** What does the source list for `O=C(O)c1ccccn1` [pyridine-2-carboxylic acid]?
**A.** Ki ([5]; read-out: Ki against CphA): 5.7 µM; activity against other MBLs (other MBLs): little or no activity; inhibitory effect on IMP-1 (IMP-1 [6]): only a very weak inhibitory effect

**Q.** Which “inhibition of human MMP-8” value [1] does the source give for `O=C(O)[C@@H]1CSC(c2ccccc2)=N1` [Compound 1, (R)-4,5-dihydro-2-phenylthiazole-4-carboxylic acid] here?
**A.** The value was “did not exhibit inhibition”.

**Q.** With `C[C@@H](O)[C@H]1C(=O)N2C(C(=O)O)=C(S[C@@H]3CN[C@H](C(=O)N(C)C)C3)[C@H](C)[C@H]12` [Meropenem] as the molecule, how does the Km (VIM-1; [9]) read?
**A.** The Km was 48 µM.

**Q.** What about the Km (GIM-1) of the same molecule?
**A.** Its Km is 2.7 µM.

**Q.** What about the Km (SPM-1) of the same molecule?
**A.** The Km was 281 µM.

**Q.** With `CC(C)(C)OC(=O)Nc1cccc(C2=NC(C(=O)O)CS2)c1` (stereo not drawn) [Compound 361, 2-[3-(tert-butoxycarbonylamino)phenyl]-4,5-dihydrothiazole-4-carboxylic acid] as the molecule, how does the IC50 (Bla2; read-out: Bla2 IC50) read?
**A.** The IC50 was 70 µM.

**Q.** With `CC1(C)SC(c2ccc(Br)cc2)=N[C@H]1C(=O)O` [Compound 365, (S)-2-(4-bromophenyl)-4,5-dihydro-5,5-dimethylthiazole-4-carboxylic acid] as the molecule, how does the IC50 (IMP-1 [4]; read-out: IMP-1 IC50) read?
**A.** Its IC50 is 150 µM.

**Q.** For `O=C(Cc1cccs1)N[C@@H]1C(=O)N2C(C(=O)O)=C(/C=C/c3ccc([N+](=O)[O-])cc3[N+](=O)[O-])CS[C@H]12` [Nitrocefin, nitrocefin], which Km (IMP-1 [3]) is on record?
**A.** The Km was 27 µM.

**Q.** What about the Km (VIM-1; [8]) of the same molecule?
**A.** The Km was 17 µM.

**Q.** What about the Km (GIM-1) of the same molecule?
**A.** Its Km is 5.8 µM.

**Q.** What about the Km (SPM-1) of the same molecule?
**A.** Its Km is 4 µM.
